# Test results: patent US5594009A, “Fused pyrrolocarbazoles” (priority 1995, dated 1997)
# Experiments:
# [1] = test system: choline acetyltransferase (ChAT) activity in dissociated rat embryonic spinal cord culture; experiment: Spinal Cord ChAT Activity Assay; type: cell-based; conditions: ChAT measured after 48 hours
# [2] = test system: ChAT activity of basal forebrain cultures; experiment: Basal Forebrain ChAT Activity Assay; type: cell-based, rat
# Protocol: Fused pyrrolocarbazoles were tested for the ability to increase ChAT activity of basal forebrain cultures.
# Methods: The basal forebrain was dissected from rat embryos (day 17 or 18 embryos) and the cells were dissociated with a neutral protease (Dispase™, Collaborative Research). Neurons were plated at a density of 5×10^4 cells/well (1.5×10^5 cells/cm^2) in poly-1-ornithine and laminin coated plates. Cells were cultured in serum-free N2 medium containing 0.05% BSA at 37° C. in a humidified atmosphere, 5% CO2 /95% air. ChAT activity was assessed 5 days after plating by using the ChAT assay as described in Example III(A)(1).
Molecule,"Spinal Cord ChAT Activity, % of Control, untreated cultures [1]",further results
"2-Chloro-6H, 7H, 12H, 13H-indeno[2,3-a]pyrrolo[3,4-c]carbazole-5(5H)one and 2-chloro-5H, 6H, 12H, 13H-indeno[2,3-a]pyrrolo[3,4-c]carbazole-7(7H)one [Compound Ia-2]",161 % of Control,–
"3-Fluoro6H, 7H, 12H, 13H-indeno[2,3-a]pyrrolo[3,4-c]carbazole-5(5H)one and 3-fluoro-5H, 6H, 12H, 13H-indeno[2,3-a]pyrrolo[3,4-c]carbazole-7((7H)one [Compound I-8]",200 % of Control,–
"Cn1c2ccccc2c2c3c(c4c(c21)Cc1ccccc1-4)C(=O)NC3=O [Compound I-4, 13-Methyl-6H, 12H-indeno[2,3-a]pyrrolo[3,4-c]carbazole-5,7(5H, 7H)-dione]",124 % of Control,–
"O=C1NC(=O)c2c1c1c(c3[nH]c4ccc(Cl)cc4c23)Cc2ccccc2-1 [Compound I-10, 3-Chloro-6H , 12H, 13H-indeno[2,3-a]pyrrolo[3,4-c]carbazole-5,7(5H, 7H)-dione]",189 % of Control,–
"COc1ccc2[nH]c3c4c(c5c(c3c2c1)CNC5=O)-c1ccccc1C4 [Compound I-13, 3-Methoxy-5H, 6H, 12H, 13H-Indeno[2,3-a]pyrrolo[3,4-c]carbazole-7(7H)one]",217 % of Control,–
"O=C1NCc2c3c(c4[nH]c5ccc(Br)cc5c4c21)CCc1ccccc1-3 [Compound I-18, 3-Bromo-12,13-dihydro-6H, 7H, 14H-naphthyl[3,4-a]pyrrolo[3,4-c]carbazole-5(5H)one]",133 % of Control,–
"O=C1NCc2c1c1c(c3[nH]c4ccc(Br)cc4c23)CCc2ccccc2-1 [Compound I-19, 3-Bromo-12,13-Dihydro-5H, 6H, 14H-naphthyl[3,4-a]pyrrolo[3,4-c]carbazole-7(7H)one]",203 % of Control,–
"CCOC(=O)C=Cc1ccc2[nH]c3c4c(c5c(c3c2c1)CNC5=O)-c1ccccc1C4 [Compound I-25, 3-(3-Ethyl propenoate)-5H,6H,12H,13H-indeno[2,3-a]pyrrolo[3,4-c]carbazole-7(7H)one]",168 % of Control,–
"O=C1NCc2c1c1c(c3[nH]c4ccc(-c5ccccc5)cc4c23)Cc2ccccc2-1 [Compound I-27, 3-Phenyl-5H,6H,12H,13H-indeno[2,3-a]pyrrolo[3,4-c]carbazole-7(7H)one]",120 % of Control,–
"O=c1[nH]c(=O)c2c1c1c3ccccc3[nH]c1c1c(=O)c3ccccc3c12 [Compound I-28, 12-Oxo-6H,13H-indeno[2,3-a]pyrrolo[3,4-c]carbazole-5,7(5H,7H)dione]",< 120 % of Control,–
"O=C1NCc2c1c1c(c3[nH]c4ccc(C=Cc5ccncc5)cc4c23)Cc2ccccc2-1 [Compound I-33, 3-(2-(4-Pyridyl)ethenyl)-5H,6H,12H,13H-indeno[2,3-a]pyrrolo[3,4-c]carbazole-7(7H)-one]",144 % of Control,–
"N#CC=Cc1ccc2[nH]c3c4c(c5c(c3c2c1)CNC5=O)-c1ccccc1C4 [Compound I-35, 3-(2-Cyanoethenyl)-5H,6H,12H,13H-indeno[2,3-a]pyrrolo[3,4-c]carbazole-7(7H)one]",121 % of Control,–
"C#Cc1ccc2[nH]c3c4c(c5c(c3c2c1)CNC5=O)-c1ccccc1C4 [Compound I-36, 3-Ethynyl-5H,6H,12H,13H-indeno[2,3-a]pyrrolo[3,4-c]carbazole-7(7H)one]",167 % of Control,"ChAT Activity (% of Control) ([2]; 1000 nM): inactive; activity at 0.1 µM ([2]; Rattus norvegicus, 120 h, 100 nM, read-out: ChAT Activity (% of Control)): 122%; activity at 0.25 µM ([2]; Rattus norvegicus, 120 h, 250 nM, read-out: ChAT Activity (% of Control)): 131%; activity at 0.5 µM ([2]; Rattus norvegicus, 120 h, 500 nM, read-out: ChAT Activity (% of Control)): 123%"
"CCCCCc1ccc2[nH]c3c4c(c5c(c3c2c1)C(=O)NC5=O)-c1ccccc1C4 [Compound I-37, 3-Pentyl-6H,12H,13H-indeno[2,3-a]pyrrolo[3,4-c]carbazole-5,7(5H,7H)dione]",< 120 % of Control,–
"O=C1NC(O)c2c1c1c3ccccc3ccc1c1[nH]c3ccccc3c21 (stereo not drawn) [Compound I-38, 5-Hydroxy-12,13-dihydro-6H, 14H-naphthyl[3,4-a]pyrrolo[3,4-c]carbazole-7(7H)one]",208 % of Control,–
"O=C1NCc2c1c1c(c3[nH]c4ccc(C=CN5C(=O)c6ccccc6C5=O)cc4c23)Cc2ccccc2-1 [Compound I-39, 3-(2-(2-Phthalimido)ethenyl)-5H,6H,12H,13H-indeno[2,3-a]pyrrolo[3,4-c]carbazole-7(7H)-one]",268 % of Control,–
"O=C1NCc2c1c1c(c3[nH]c4ccc(I)cc4c23)Cc2ccccc2-1 [Compound I-40, 3-Iodo-5H, 6H, 12H, 13H-indeno[2,3-a]pyrrolo[3,4-c]carbazole-7(7H)-one]",150 % of Control,–
"O=C1NCc2c3c(c4[nH]c5ccc(C=Cc6ccccn6)cc5c4c21)Cc1ccccc1-3 [Compound I-41, 3-(2-(2-Pyridylethenyl))-6H,7H,12H,13H-indeno[2,3-a]pyrrolo[3,4-c]carbazole-5(5H)-one]",122 % of Control,–
"O=C1NCc2c1c1c3ccccc3[nH]c1c1sc3ccccc3c21 [Compound I-42, 6H, 7H, 12H-Benzo[b]thieno[2,3-a]pyrrolo[3,4-c]carbazole-5(5H)one]",177 % of Control,–
"O=C1NCc2c1c1c3ccccc3sc1c1[nH]c3ccccc3c21 [Compound I-43, 6H, 7H, 12H-Benzo[b]thieno[2,3-a]pyrrolo[3,4-c]carbazole-7(7H)one]",138 % of Control,–
O=C1NCc2c1c1c(c3[nH]c4ccc(C=CI)cc4c23)Cc2ccccc2-1 [Compound I-44],127 % of Control,–
"O=C1NC(=O)c2c1c1c(c3[nH]c4ccccc4c23)Cc2cc(Br)ccc2-1 [Compound Ia-3, 10-bromo-6H, 12H, 13H-indeno[2,3-a]pyrrolo[3,4-c]carbazole-5,7(5H, 7H)dione]",138 % of Control,–
"O=C1NC(=O)c2c1c1c(c3[nH]c4ccccc4c23)CCc2cc(F)ccc2-1 [Compound Ia-4, 10-Fluoro-12,13-dihydro-6H, 14H-naphthyl[3,4-a]pyrrolo[3,4-c]carbazole-5,7(5H, 7H)dione]",< 120 % of Control,–
"O=C1NC(=O)c2c1c1c(c3[nH]c4ccccc4c23)CCc2cc(Br)ccc2-1 [Compound Ia-5, 10-Bromo-12,13-dihydro-6H, 14H-naphthyl[3,4,-a]pyrrolo[3,4-c]carbazole-5,7(5H, 7H)dione]",132 % of Control,–
O=C1NC(=O)c2c1c1c(c3[nH]c4ccccc4c23)CCc2cc(C=Cc3ccccn3)ccc2-1 [Compound Ia-6],139 % of Control,–
O=C1NC(=O)c2c1c1c(c3[nH]c4ccccc4c23)CCc2cc(CCc3ccccn3)ccc2-1 [Compound Ia-7],< 120 % of Control,–
"Cc1cccc2c1[nH]c1c3c(c4c(c12)C(=O)NC4=O)-c1ccccc1C3 [Compound Ib-1, 1-Methyl-12H, 13H-indeno[2,3-a]pyrrolo[3,4-c]carbazole-6H-5,7(5H, 7H)-dione]",138 % of Control,–
O=C1NC(=O)c2c1c1c(c3[nH]c4ccccc4c23)Cc2ccc(Br)cc2-1 [Compound Ib-2],153 % of Control,–
"mixture of 13-Methyl-6H, 7H, 12H-indeno[2,3-a]pyrrolo[3,4-c]carbazole-5(5H)one and 13-methyl-5H, 6H, 12H-indeno[2,3-a]pyrrolo[3,4,-c]carbazole-7(7H)one [Compound I-5]",137 % of Control,–
